Assay results: patent US20100056636A1, “N-Substituted-P-Menthane-3-Carboxamide and Uses Thereof” (priority 2006, published 2010)

Tests used:
[1] = test system: panel of flavourists; assay: Comparative sensorial evaluation: aqueous solutions tasted by a panel of flavourists; assay type: in vivo, human
Method: Four aqueous solutions were prepared: A. […] 20 ppm WS-3 dissolved in solution A; and D. 2 ppm WS-3 dissolved in solution A. These solutions were tasted and evaluated by a panel of flavourists. […]

[2] = test system: panel of experienced flavourists; assay: Hard boiled sweets containing cold receptor stimulant, evaluated by a panel of experienced flavourists; assay type: in vivo, human; conditions: for strength of products A, B and C relative to each other: hard boiled sweets: A 50 ppm WS-3, B 5 ppm example 1, C 2.5 ppm example 2
Method: The sweets were prepared according to the following procedure. Sugar, water and glucose syrup are mixed and boiled till 146° C. The mix is cooled to 120° C., the cold receptor stimulant is added and carefully mixed in. The mix is poured on a cooling table and folded in and molded on a roller.
The sweets prepared were evaluated by a panel of experienced flavourists.

[3] = test system: small group of panelists; assay: Panel tasting of aqueous solutions: cooling intensity matched to a solution of menthol at 2 ppm; assay type: in vivo, human; conditions: tasted
[4] = cited from earlier work

With `CC1CCC(C(C)C)C(C(=O)NCC(O)c2ccccc2)C1` (stereo not shown) [Example 1, 2-isopropyl-5-methyl-cyclohexanecarboxylic acid (2-hydroxy-2-phenylethyl)-amide] as the compound, how does the “sensory description of solution” value ([1]; Example 3, solution B: 2 ppm product of example 1 dissolved in 20 ppm menthol aqueous solution) read?
Its value is ““high initial cooling burst”, “long-lasting cooling”, “cold perception in whole mouth”, “some hotness””.

What about the “strength of solution B relative to solution D” value ([1]; Example 3: 2 ppm product of example 1 versus 2 ppm WS-3, both in 20 ppm menthol solution) of the same compound?
Its value is “much stronger”.

What about the “strength of solution B relative to solution C” value ([1]; Example 3: 2 ppm product of example 1 versus 20 ppm WS-3, both in 20 ppm menthol solution) of the same compound?
The value was “comparable strength”.

And the “location of effect and aftertaste” value ([2]; Product B: 5 ppm product prepared in example 1)?
Its value is “in the whole mouth and has a tingling-cool aftertaste”.

What about the “sensory description of hard boiled sweet” value ([2]; Product B: 5 ppm product prepared in example 1, A = 50 ppm WS-3) of the same compound?
The value was ““giving a cold sensation which is not irritating” and “much more longlasting than A””.

What about the “strength of products A, B and C relative to each other” value [2] of the same compound?
The value was “comparable”.

And the “Concentration with cooling intensity similar to or slightly higher than that of a solution of menthol at 2 ppm” value (shortened to “Concentration”) [3]?
Its value is 0.005 ppm.

With `CC1CCC(C(C)C)C(C(=O)NCCc2ccccc2)C1` (stereo not shown) [Example 2, 2-isopropyl-5-methyl-cyclohexanecarboxylic acid phenylethyl-amide] as the compound, how does the “sensory description of solution” value ([1]; Example 4, solution B: 1 ppm product of example 2 dissolved in 20 ppm menthol aqueous solution) read?
The value was ““cold perception with a pain sensation”, “aggressive, long-lasting cooling”, “almost noxious cold”, “slightly tingling””.

What about the “strength of solution B relative to solution D” value ([1]; Example 4: 1 ppm product of example 2 versus 2 ppm WS-3, both in 20 ppm menthol solution) of the same compound?
Its value is “much stronger”.

And the “strength of solution B relative to solution C” value ([1]; Example 4: 1 ppm product of example 2 versus 20 ppm WS-3, both in 20 ppm menthol solution)?
Its value is “comparable strength”.

What about the “sensory description of hard boiled sweet” value ([2]; Product C: 2.5 ppm product prepared in example 2) of the same compound?
The value was ““slow release cooling”, “giving a cold effect in the whole mouth”, “tingling pain sensation enhancing the cooling effect and “very longlasting””.

What about the “strength of products A, B and C relative to each other” value [2] of the same compound?
The value was “comparable”.

What about the “Concentration” value [3] of the same compound?
Its value is 0.2 ppm.

For `CCOc1ccccc1CCNC(=O)C1CC(C)CCC1C(C)C` (stereo not shown) [Example 5, N-(2-ethoxyphenethyl)-2-isopropyl-5-methylcyclohexane-carboxamide], which “Concentration” value [3] is on record?
Its value is 0.002 ppm.

Which “Concentration” value [3] does the source give for `CC1CCC(C(C)C)C(C(=O)N[C@H]2C[C@H]2c2ccccc2)C1` (stereo partly drawn) [Example 6, 2-isopropyl-5-methyl-N-((1S,2S)-2-phenylcyclopropyl)-cyclohexanecarboxamide] here?
The value was 0.1 ppm.

Which “sensory description of solution, compared with solution B” value ([1]; Example 3, solution C: 20 ppm WS-3 in 20 ppm menthol solution, B = 2 ppm product of example 1 in 20 ppm menthol) does the source give for `CCNC(=O)C1CC(C)CCC1C(C)C` (stereo not shown) [WS-3, N-Ethyl-p-menthane-3-carboxamide, reference compound] here?
The value was ““more neutral cold perception than B”, “less aggressive cooling than B”, “less long-lasting cooling than B””.

And the “sensory description of solution, compared with solution B” value ([1]; Example 3, solution D: 2 ppm WS-3 in 20 ppm menthol solution, B = 2 ppm product of example 1 in 20 ppm menthol)?
The value was ““more neutral cold perception than B”, “less aggressive cooling than B”, “less long-lasting cooling than B””.

What about the “sensory description of solution, compared with solution B” value ([1]; Example 4, solution C: 20 ppm WS-3 in 20 ppm menthol solution, B = 1 ppm product of example 2 in 20 ppm menthol) of the same compound?
The value was ““more neutral cold perception than B”, “less aggressive cooling than B”, “less long-lasting cooling than B””.

And the “sensory description of solution, compared with solution B” value ([1]; Example 4, solution D: 2 ppm WS-3 in 20 ppm menthol solution, B = 1 ppm product of example 2 in 20 ppm menthol)?
The value was ““more neutral cold perception than B”, “less aggressive cooling than B”, “less long-lasting cooling than B””.

What about the “sensory description of hard boiled sweet” value ([2]; Product A (control): 50 ppm WS-3) of the same compound?
The value was ““giving coolness and a cold perception” and “having an immediate cooling effect” and “not longlasting””.

And the “feeling in the throat” value ([2]; Product A: hard boiled sweet, dosage of 50 ppm WS-3)?
The value was “irritating feeling in the throat”.

What about the “strength of products A, B and C relative to each other” value [2] of the same compound?
The value was “comparable”.

And the “Concentration” value [3]?
The value was 1.5 ppm.

Which results are given for `CC1CCC(C(C)C)C(O)C1` (stereo not shown) [menthol, reference compound]?
sensory description of solution ([1]; solution A: 20 ppm menthol in water): “cooling”; Concentration with cooling intensity similar to or slightly higher than that of a solution of menthol at 2 ppm [3]: 2.0 ppm

With “Ethyl 3-(p-menthane-3-carboxamido)acetate [(1R,3R,4S)-WS-5]” as the compound, how does the “perceived cooling relative to WS-3” value ([4]; reported in US Patent Application No. 20050222256) read?
Its value is 2.5-3.0 times.

Which “coolness relative to WS-3” value ([4]; known) does the source give for “Ethyl 3-(p-menthane-3-carboxamido)acetate [WS-5]” here?
The value was “significantly cooler than WS-3”.

With “N-(3,4-dimethylphenethyl)-2-isopropyl-5-ethylcyclo-hexanecarboxamide [Example 7]” as the compound, how does the “Concentration” value [3] read?
The value was 0.002 ppm.
